Laboratory results: patent US9901583B2, “Method of treating non-small cell lung cancer and/or small cell lung cancer using thienotriazolodiazepine compounds” (ONCOETHIX GMBH, priority 2014, dated 2018)
Several values for one entry are separate records, joined by “and”; a condition that tells them apart may be missing. Identical values can stand only once.

Key:
[1] = target: PI3Kγ (p110γ) (Homo sapiens, UniProt P48736); conditions: cited from earlier work
[2] = target: PI3Kβ (p110β) (Homo sapiens, UniProt P42338); conditions: cited from earlier work
Sequence of PI3Kβ (p110β) (P42338 whole entry, species assumed): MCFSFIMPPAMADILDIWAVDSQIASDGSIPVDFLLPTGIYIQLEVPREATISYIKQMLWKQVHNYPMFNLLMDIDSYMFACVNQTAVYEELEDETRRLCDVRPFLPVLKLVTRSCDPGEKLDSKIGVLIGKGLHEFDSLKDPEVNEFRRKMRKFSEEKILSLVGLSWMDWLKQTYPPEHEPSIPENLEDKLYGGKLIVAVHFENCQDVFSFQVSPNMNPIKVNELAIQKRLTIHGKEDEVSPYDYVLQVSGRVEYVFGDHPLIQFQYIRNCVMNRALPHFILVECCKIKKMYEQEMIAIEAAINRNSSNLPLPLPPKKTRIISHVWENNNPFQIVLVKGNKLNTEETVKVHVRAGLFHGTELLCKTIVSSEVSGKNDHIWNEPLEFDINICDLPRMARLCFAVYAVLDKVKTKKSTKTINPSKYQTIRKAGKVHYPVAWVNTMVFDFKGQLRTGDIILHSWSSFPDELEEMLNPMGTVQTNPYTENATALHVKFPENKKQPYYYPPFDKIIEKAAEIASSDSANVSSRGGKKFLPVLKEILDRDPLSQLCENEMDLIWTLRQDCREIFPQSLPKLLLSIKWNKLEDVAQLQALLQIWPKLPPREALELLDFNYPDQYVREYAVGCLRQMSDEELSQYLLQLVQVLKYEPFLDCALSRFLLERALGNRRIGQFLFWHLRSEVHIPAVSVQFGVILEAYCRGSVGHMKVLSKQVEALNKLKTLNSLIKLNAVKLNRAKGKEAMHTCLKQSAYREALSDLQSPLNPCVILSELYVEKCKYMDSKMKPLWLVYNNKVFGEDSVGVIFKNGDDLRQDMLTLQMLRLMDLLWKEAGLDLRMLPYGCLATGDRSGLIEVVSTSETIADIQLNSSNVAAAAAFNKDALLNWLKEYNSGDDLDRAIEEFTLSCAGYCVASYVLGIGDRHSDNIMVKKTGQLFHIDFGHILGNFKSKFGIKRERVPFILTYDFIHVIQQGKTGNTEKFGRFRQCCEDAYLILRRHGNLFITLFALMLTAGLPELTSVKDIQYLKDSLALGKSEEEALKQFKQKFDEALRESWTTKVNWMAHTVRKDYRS
Sequence of PI3Kβ (p110β) (P27986 whole entry partner, species assumed): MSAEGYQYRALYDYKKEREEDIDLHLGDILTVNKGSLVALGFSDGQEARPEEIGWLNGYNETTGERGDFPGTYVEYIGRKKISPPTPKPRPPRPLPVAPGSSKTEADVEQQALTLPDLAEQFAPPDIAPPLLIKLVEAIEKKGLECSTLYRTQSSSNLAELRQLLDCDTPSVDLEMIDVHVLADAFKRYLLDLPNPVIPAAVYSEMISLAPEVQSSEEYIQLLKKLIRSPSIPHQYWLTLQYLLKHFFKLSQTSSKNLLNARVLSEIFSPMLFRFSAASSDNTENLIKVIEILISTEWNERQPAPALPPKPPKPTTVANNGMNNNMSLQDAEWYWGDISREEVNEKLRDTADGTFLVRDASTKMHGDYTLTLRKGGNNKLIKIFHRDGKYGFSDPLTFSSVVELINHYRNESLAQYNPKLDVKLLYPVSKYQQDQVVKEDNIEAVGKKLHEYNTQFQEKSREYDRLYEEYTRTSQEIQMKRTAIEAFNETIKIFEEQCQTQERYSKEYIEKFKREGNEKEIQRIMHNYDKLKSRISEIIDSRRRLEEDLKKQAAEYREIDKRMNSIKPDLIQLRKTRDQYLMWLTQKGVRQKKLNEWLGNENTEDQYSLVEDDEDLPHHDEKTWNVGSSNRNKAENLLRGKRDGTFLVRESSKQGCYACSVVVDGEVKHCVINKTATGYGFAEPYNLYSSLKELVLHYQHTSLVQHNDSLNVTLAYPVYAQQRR

[3] = test system: H3122 cells; assay: H3122 tumor-bearing mice; format: in vivo, male athymic NMRI nude mice; conditions: 3 weeks of treatment
Experimental: In vivo studies: 5×10^6 H3122 cells were injected in the flank of male athymic NMRI nude mice, and mice were randomized to 3 groups (8 mice/group) when tumor volume reach 100 mm^3; vehicle (PBS, once daily, oral continuous), Compound (1-1) (50 mg/kg/bidaily, gavage, continuous), or crizotinib (25 mg/kg/daily, gavage, continuous).

[4] = test system: H2226; assay: Cell cycle analysis (propidium iodide, FACScan); format: cell-based; conditions: H2226, 24 h exposure at 500 nM
[5] = test system: H2228 cells; assay: Combination with crizotinib, Chou-Talalay combination index; format: cell-based; conditions: 48 h concomitant exposure, dihydrate
Experimental: (§1) Protein levels were analyzed by Western Blot with commercial antibodies; RT-PCR was done with Fast SYBR Green Master Mix on a StepOnePlus Real-Time PCR System at baseline, 4 and 24 h post-treatment. For cell cycle analysis cells were stained with propidium iodide and DNA content analyzed with a FACScan flow cytometer. Compound (1-1) was combined with the targeted agents everolimus and crizotinib and the combination index (CI) determined by the Chou-Talalay method.
(§2) Materials and Methods. Five established NSCLC cell lines, HOP62, HOP92, A549, H2228, and H3122 harboring different oncogenic mutations for KRAS, LKB I, TP53 and ALK (FIG. 13) were exposed to increasing doses of compound (1-1) (OncoEthix SA, Switzerland) for 72 h and cell proliferation was evaluated by MTT assays. Results represent the mean±95% CI of at least 3 independent experiments performed in triplicate. Protein levels were analyzed by Western blot using commercial antibodies. For cell cycle analysis cells were stained with PI and analyzed using a FACScan flow cytometer after 24 h of treatment. […] Concomitant compound (1-1) combination studies were performed in cell lines exposed for 48 h to increasing doses of compound (1-1) alone or in combination with everolimus or crizotinib, and assessed using the Chou & Talalay method. Combination Index (CI) was determined by median effect plot analysis using CalcuSyn software. […]

[6] = test system: NSCLC cell lines (H2228, H3122, A549, HOP62, HOP92); assay: MTT assay, growth inhibition, NSCLC panel; format: cell-based; conditions: 72 h, 72 h exposure, 4 of 5 NSCLC cell lines
Experimental: as §1, §2

[7] = test system: HOP92; assay: Cell cycle analysis (propidium iodide, FACScan); format: cell-based; conditions: HOP92, 24 h exposure at 500 nM
Experimental: as §1, §2

[8] = test system: H3122; assay: Cell cycle analysis (propidium iodide, FACScan); format: cell-based; conditions: H3122, 24 h exposure at 500 nM
Experimental: as §1, §2

[9] = test system: H82 cells; assay: MTT assay, growth inhibition; format: cell-based; conditions: Homo sapiens, NCI-H82, 72 h exposure
Experimental: (§3) Protein levels were analyzed by Western Blot using commercial antibodies and RT-PCR was performed with Fast SYBR Green Master Mix on a StepOnePlus Real-Time PCR System at baseline, then 4 and 24 h post-treatment. For cell cycle analysis, cells were stained with propidium iodide and analyzed for DNA content with a FACScan flow cytometer.
(§4) Cell lines were exposed to increasing doses of compound (1-1) for 72 hours, and cell proliferation was evaluated with the MTT assay. GI50 and Emax values were calculated with the equation for sigmoidal dose response using Prism 5.00 for Windows. Results represent the mean±95% CI of at least 3 independent experiments performed in triplicate.
(§5) For cell cycle analysis, cells were stained with propidium iodide and analyzed with a FACScan flow cytometer. RNA was isolated after treatment with DMSO or OTX015 (500 nM) for 2, 4, 8 or 12 and 24 h and gene expression profiles (GEP) were obtained in all NSCLC and 2 SCLC (H82 and DMS114) cell lines with Illumina HumanHT-12 Expression BeadChips. Data mining was done with LIMMA, GSEA, Metacore.

[10] = test system: H69 cells; assay: MTT assay, growth inhibition; format: cell-based; conditions: Homo sapiens, NCI-H69, 72 h exposure
Experimental: as §3, §4, §5

[11] = test system: DMS79 cells; assay: MTT assay, growth inhibition; format: cell-based; conditions: Homo sapiens, DMS-79, 72 h exposure
Experimental: as §3, §4, §5

[12] = test system: DMS114 cells; assay: MTT assay, growth inhibition; format: cell-based; conditions: Homo sapiens, DMS-114, read-out: GI50 (95% CI), 72 h exposure
Experimental: as §3, §4, §5

[13] = Oral exposure in the rat (pharmacokinetics); format: in vivo, Sprague Dawley rats; conditions: 1 mg/kg intravenous, rats
Experimental: The oral bioavailability of three formulations of solid dispersions of compound (1-1) was determined in rats. The three dispersions chosen were the 25% dispersion of compound (1-1) in PVP, the 25% dispersion of compound (1-1) in HPMCAS-MG, and the 50% dispersion of compound (1-1) in HPMCAS-MG. The animals used in the study were Specific Pathogen Free (SPF) Hsd:Sprague Dawley rats obtained from the Central Animal Laboratory at the University of Turku, Finland. The rats were originally purchased from Harlan, The Netherlands. The rats were female and were ten weeks of age, and 12 rats were used in the study. […]
The oral dosing solutions containing the 25% dispersion of compound (1-1) in PVP, the 25% dispersion of compound (1-1) in HPMCAS-MG, and the 50% dispersion of compound (1-1) in HPMCAS-MG were prepared by adding a pre-calculated amount of sterile water for injection to containers holding the dispersion using appropriate quantities to obtain a concentration of 0.75 mg/mL of compound (1-1). […]
Pharmacokinetic parameters were calculated with the Phoenix WinNonlin software package (version 6.2.1, Pharsight Corp., CA, USA) with standard noncompartmental methods. The elimination phase half-life (t1/2) was calculated by least-squares regression analysis of the terminal linear part of the log concentration-time curve. […]

[14] = test system: PI3K/mTOR; conditions: cited from earlier work
[15] = target: FKBP12 (Homo sapiens, UniProt P62942); conditions: cited from earlier work
Sequence of FKBP12 (P62942 whole entry, species assumed): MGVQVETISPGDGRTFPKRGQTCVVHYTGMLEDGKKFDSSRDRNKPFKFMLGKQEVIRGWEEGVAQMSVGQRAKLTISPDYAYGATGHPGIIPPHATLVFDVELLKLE

[16] = test system: Akt phosphorylation on T308; conditions: cited from earlier work
[17] = test system: Akt phosphorylation on S473; conditions: cited from earlier work
[18] = test system: PDGFR; conditions: read-out: IC50 PDGFR; cited from earlier work

Sequence of PI3Kγ (p110γ) (P48736 whole entry, species assumed): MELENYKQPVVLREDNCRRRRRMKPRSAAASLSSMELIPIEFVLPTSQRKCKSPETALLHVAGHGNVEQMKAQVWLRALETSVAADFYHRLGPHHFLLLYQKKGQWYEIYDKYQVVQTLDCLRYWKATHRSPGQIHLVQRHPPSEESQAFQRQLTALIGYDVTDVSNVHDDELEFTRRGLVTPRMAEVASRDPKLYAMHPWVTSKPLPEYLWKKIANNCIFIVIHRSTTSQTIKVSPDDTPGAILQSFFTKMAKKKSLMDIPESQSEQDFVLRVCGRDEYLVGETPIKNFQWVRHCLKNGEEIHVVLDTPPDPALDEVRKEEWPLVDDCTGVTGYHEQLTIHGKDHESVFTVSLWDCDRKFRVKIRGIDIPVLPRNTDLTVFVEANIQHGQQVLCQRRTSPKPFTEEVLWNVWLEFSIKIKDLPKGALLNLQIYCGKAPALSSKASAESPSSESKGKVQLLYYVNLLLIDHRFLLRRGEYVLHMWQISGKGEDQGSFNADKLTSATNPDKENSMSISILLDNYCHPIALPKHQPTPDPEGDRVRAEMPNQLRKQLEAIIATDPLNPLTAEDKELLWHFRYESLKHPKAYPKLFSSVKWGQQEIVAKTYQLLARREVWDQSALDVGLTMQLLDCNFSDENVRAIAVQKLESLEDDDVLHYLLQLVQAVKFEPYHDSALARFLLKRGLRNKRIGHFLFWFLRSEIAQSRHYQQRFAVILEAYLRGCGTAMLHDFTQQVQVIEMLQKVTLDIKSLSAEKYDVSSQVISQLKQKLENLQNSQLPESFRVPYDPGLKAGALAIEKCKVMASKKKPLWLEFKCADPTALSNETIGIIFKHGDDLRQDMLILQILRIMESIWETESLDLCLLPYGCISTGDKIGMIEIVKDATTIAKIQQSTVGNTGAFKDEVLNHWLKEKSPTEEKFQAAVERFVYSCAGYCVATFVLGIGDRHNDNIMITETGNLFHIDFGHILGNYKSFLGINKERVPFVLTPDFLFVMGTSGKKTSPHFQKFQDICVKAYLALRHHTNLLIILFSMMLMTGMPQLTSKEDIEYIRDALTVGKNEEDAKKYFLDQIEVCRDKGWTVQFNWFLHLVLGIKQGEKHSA

Question: Which Ki [1] does the source give for GSK2126458 here?
Answer: 0.024 nM

Question: What about the Ki [2] of the same molecule?
Answer: 0.13 nM

Question: With `Cc1sc2c(c1C)C(c1ccc(Cl)cc1)=N[C@@H](CC(=O)Nc1ccc(O)cc1)c1nnc(C)n1-2` [Compound (1-1), 2-[(6S)-4-(4-chlorophenyl)-2,3,9-trimethyl-6H-thienol[3,2-f]-[1,2,4]triazolo[4,3-a][1,4]diazepin-6-yl]-N-(4-hydroxyphenyl)acetamide dihydrate] as the molecule, how does the weight loss [3] read?
Answer: no weight loss was observed

Question: And the “reduction of percent cells in the S phase” value (“reduction of percent cells” for short) [4]?
Answer: 42%

Question: And the “combination index (CI) with crizotinib” value [5]?
Answer: 0.98 and 0.9

Question: And the GI50 [6]?
Answer: 110 to 940 nM

Question: And the “reduction of percent cells” value [7]?
Answer: 40%

Question: What about the “reduction of percent cells” value [8] of the same molecule?
Answer: 52%

Question: What about the GI50 [9] of the same molecule?
Answer: > 6 µM

Question: What about the GI50 [10] of the same molecule?
Answer: > 6 µM

Question: What about the GI50 [11] of the same molecule?
Answer: > 6 µM

Question: And the GI50 [12]?
Answer: 120 nM

Question: What about the CI/F [13] of the same molecule?
Answer: 13.4 mL/min/kg

Question: With `COc1ccc(-c2ccc3ncc4c(c3c2)n(-c2ccc(N3CCNCC3)c(C(F)(F)F)c2)c(=O)n4C)cn1` [NVP-BGT226] as the molecule, how does the IC50 [14] read?
Answer: 1 nM

Question: With `CO[C@H]1C[C@@H]2CC[C@@H](C)[C@@](O)(O2)C(=O)C(=O)N2CCCC[C@H]2C(=O)O[C@H]([C@H](C)C[C@@H]2CC[C@@H](OCCO)[C@H](OC)C2)CC(=O)[C@H](C)/C=C(\C)[C@@H](O)[C@@H](OC)C(=O)[C@H](C)C[C@H](C)/C=C/C=C/C=C/1C` [Everolimus] as the molecule, how does the IC50 [15] read?
Answer: 1.6 to 2.4 nM

Question: What does the source list for `COc1ccc(-c2cc3c(C)nc(N)nc3n([C@H]3CC[C@H](OCCO)CC3)c2=O)cn1` [PF-04691502]?
Answer: IC50 [16]: 7.5 nM; IC50 [17]: 3.8 nM

Question: With `Nc1ncnc2c1c(-c1cnc3[nH]ccc3c1)nn2C1CCCC1` [PP-121] as the molecule, how does the IC50 [18] read?
Answer: 2 nM
